Experimental data from patent US9593096B2, “α7 nicotinic acetylcholine receptor modulators and uses thereof-III” (Merck Sharp & Dohme Corp., priority 2013, dated 2017).

Experiments:
rat α7 nAChRs = molecular target: T1, rat α7 nAChRs (Rattus norvegicus, UniProt Q05941); assay: Automated planar patch clamp (Patchliner) for α7 nAChR positive allosteric modulation; format: cell-based; design: key to Type I or Type II: I: Type 1 predominately affects the peak current; Type II modulators affect the peak current and also delay the desensitization of the receptor; conditions: for activation at 3 µM: GH4-C1, 3 μM compound in the presence of acetylcholine, GH4C1 cells expressing rat α7 nAChRs, relative to control ACh response, read-out: Peak potentiation at 3 μM compound; for Type I or Type II: modulator type based on the electrophysiology trace
T1 construct: expressed in transfected cells; host or cells: GH4C1 (rat pituitary cell line) stably expressing α7 nAChR
Procedure: Compounds of the invention may be evaluated by electrophysiology using a Patchliner® (Nanion Technologies GmbH, Germany), an automated planar patch-clamp platform of medium throughput was used as a first step in electrophysiological assessment of α7 nAChR positive allosteric modulators (PAMs).
Briefly, intracellular (KCl—50 mM, NaCl—10 mM, KF—60 mM, EGTA—20 mM, HEPES—10 mM, pH—7.2, 285 mOsmol) and extracellular (NaCl—140 mM, KCl—4 mM, CaCl2-2 mM, MgCl2—1 mM, HEPES—10 mM, D-Glucose—5 mM, pH—7.4, 298 mOsmol) solutions were automatically pipetted onto NPC-16 chip (medium resistance ˜2.5-2.6 MΩ). Suspension of GH4C1 cells expressing rat α7 nAChRs was introduced in 4 wells of a medium resistance chip and suction was applied to attract cells in the holes. The extracellular solution was subsequently exchanged to high calcium solution (NaCl—80 mM, KCl—3 mM, CaCl2—45 mM, HEPES—10 mM, pH—7.4, 298 mOsmol) followed by gigaohm seal formation and obtaining whole-cell configuration. The rest of protocol was carried out in the high-calcium recording solution. Holding potential was −70 mV throughout the protocol. A control response to 60 or 100 μM of ACh was obtained first. Next, a cell was pre-incubated with compound of interest at 3 μM for ˜30 s after which the compound was co-applied with acetylcholine.
Amplitude of the responses was measured in HEKA Patchmaster software (HEKA Elektronik, Germany) and percentage of potentiation calculated. Recording was repeated […] a minimum of two replicates had been obtained per compound.
Compounds shown in Table 1 were evaluated by automated planar patch clamp on the Patchliner® as described in Example P2.1. […] The compounds are designated either as Type I or Type II modulators based on the electrophysiology trace. Type 1 predominately affects the peak current. Type II modulators affect the peak current and also delay the desensitization of the receptor.

mice = assay: T-maze Continuous Alternation Task (T-CAT), scopolamine-induced cognitive impairment; format: in vivo; conditions: mouse, dosed orally at 10 mg/kg, scopolamine-induced disruption of spontaneous alternation
Description: The T-maze Continuous Alternation Task (T-CAT) measures spontaneous alternation, which is the innate tendency of mice to alternate free choices in a T-maze over a series of successive runs. This sequential procedure relies on working memory and is sensitive to various pharmacological manipulations affecting memory processes.
The T-maze apparatus is made of gray Plexiglas with a main stem (55 cm long×10 cm wide×25 cm high) and two arms (30 cm long×10 cm wide×25 cm high) positioned at 90 degree angle relative to the main stem. A start box (15 cm long×10 cm wide) is separated from the main stem by a sliding door. Sliding doors are also provided to close specific arms during the forced-choice alternation task.
The experimental protocol consists of one single session, which starts with 1 “forced-choice” trial, followed by 14 “free-choice” trials. In the first “forced-choice” trial, the animal is confined for 5 s in the start arm and then it is released while either the left or right goal arm is blocked by a sliding door. The animal will negotiate the maze, eventually enter the open goal arm, and return to the start position. Immediately after the return to the start position, the left or right goal door is opened and the animal is allowed to choose freely between the left and right goal arm (“free choice” trials). The animal is considered to have entered an arm when it places four paws in the arm. A session is terminated and the animal is removed from the maze as soon as 14 free-choice trials have been performed or 10 minutes have elapsed, whichever event occurs first. The percentage of alternation over the 14 free-choice trials is determined for each mouse and is used as an index of working memory performance. This percentage is defined as entry in a different arm of the T-maze over successive visits (i.e., left-right-left-right, etc).
Scopolamine administered 20 minutes prior the initiation of the T-maze session is used to induce disruption in the spontaneous alternation of mice. Test compounds are administered 60 minutes prior the start of the T-maze session in order to evaluate their ability to reverse the scopolamine effect.
The apparatus is cleaned between each animal using alcohol (70°). Urine and faeces are removed from the maze. During the trials, animal handling and the visibility of the operator are minimized as much as possible.
The compounds were dosed orally at 10 mg/kg.

T1 sequence (Q05941 23-502): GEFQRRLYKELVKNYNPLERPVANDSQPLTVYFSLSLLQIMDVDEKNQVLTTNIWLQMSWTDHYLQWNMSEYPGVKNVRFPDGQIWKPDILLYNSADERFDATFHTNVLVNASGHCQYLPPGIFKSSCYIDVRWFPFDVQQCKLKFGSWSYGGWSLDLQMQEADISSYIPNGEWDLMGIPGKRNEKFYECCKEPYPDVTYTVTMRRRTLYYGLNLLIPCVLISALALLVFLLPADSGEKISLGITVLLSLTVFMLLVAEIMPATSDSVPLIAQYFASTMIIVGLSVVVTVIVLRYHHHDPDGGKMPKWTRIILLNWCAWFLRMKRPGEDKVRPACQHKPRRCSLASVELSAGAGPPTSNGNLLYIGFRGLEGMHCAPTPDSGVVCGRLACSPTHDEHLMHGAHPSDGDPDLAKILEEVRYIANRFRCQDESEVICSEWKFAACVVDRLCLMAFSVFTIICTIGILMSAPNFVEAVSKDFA

SMILES | activation at 3 µM (rat α7 nAChRs) [%] | Type I or Type II (rat α7 nAChRs) | T-maze % control at 10 mg/kg (mice) [%]
CC(C)n1cc(C(=O)Nc2cncc(F)c2)c2cc(F)ccc21 [Example 6, 5-fluoro-N-(5-fluoropyridin-3-yl)-1-(propan-2-yl)-1H-indole-3-carboxamide] | 374 | I | –
Cn1cc(C(=O)Nc2cncc(F)c2)c2cc(C(F)(F)F)ccc21 [Example 10, N-(5-fluoropyridin-3-yl)-1-methyl-5-(trifluoromethyl)-1H-indole-3-carboxamide] | 41 | I | –
Cn1cc(C(=O)Nc2ccnc(C(F)(F)F)c2)c2cc(C(F)(F)F)ccc21 [Example 9, 1-methyl-5-(trifluoromethyl)-N-[2-(trifluoromethyl)pyridin-4-yl]-1H-indole-3-carboxamide] | 83 | I | –
CCn1cc(C(=O)Nc2ccnc(C(F)(F)F)n2)c2cc(F)ccc21 [Example 4, 1-ethyl-5-fluoro-N-[2-(trifluoromethyl)pyrimidin-4-yl]-1H-indole-3-carboxamide] | 30 | I | –
Cc1ccc2c(c1)c(C(=O)Nc1cc(C(F)(F)F)ncn1)cn2C [Example 8, 1,5-dimethyl-N-[6-(trifluoromethyl)pyrimidin-4-yl]-1H-indole-3-carboxamide] | 428 | I | –
Cn1cc(-c2ccc3c(c2)c(C(=O)Nc2ccnc(C(F)(F)F)c2)cn3C)cn1 [Example 11, 1-methyl-5-(1-methyl-1H-pyrazol-4-yl)-N-[2-(trifluoromethyl)pyridin-4-yl]-1H-indole-3-carboxamide] | 78 | I | –
Cc1ccc2c(c1)c(C(=O)Nc1ccnc(C(F)(F)F)c1)cn2C [Example 7, 1,5-dimethyl-N-[2-(trifluoromethyl)pyridin-4-yl]-1H-indole-3-carboxamide] | 663 | I | 80
Cn1cc(C(=O)Nc2ccnc(C(F)(F)F)c2)c2cc(F)ccc21 [Example 5, 5-fluoro-1-methyl-N-[2-(trifluoromethyl)pyridin-4-yl]-1H-indole-3-carboxamide] | 326 | I | 78
CCn1cc(C(=O)Nc2cncc(F)c2)c2cc(F)ccc21 [Example 1, 1-ethyl-5-fluoro-N-(5-fluoropyridin-3-yl)-1H-indole-3-carboxamide] | – | I | 70
CCn1cc(C(=O)Nc2cc(C(F)(F)F)ncn2)c2cc(F)ccc21 [Example 2, 1-ethyl-5-fluoro-N-[6-(trifluoromethyl)pyrimidin-4-yl]-1H-indole-3-carboxamide] | – | I | 76
O=C(Nc1ccnc(C(F)(F)F)c1)c1cn(CCO)c2ccc(F)cc12 [Example 12, 5-fluoro-1-(2-hydroxyethyl)-N-[2-(trifluoromethyl)pyridin-4-yl]-1H-indole-3-carboxamide] | 257 | I | –
CCn1cc(C(=O)Nc2ccc(C(F)(F)F)nc2)c2cc(F)ccc21 [Example 3, 1-ethyl-5-fluoro-N-[6-(trifluoromethyl)pyridin-3-yl]-1H-indole-3-carboxamide] | – | – | 73
